Source: patent US20040241708A1, “Recombinant vector for transforming strain to detect benzoic acid and derivatives thereof, transformant containing the recombinant vector, and method for detecting benzoic acid and derivatives thereof using the transformant” (priority 2003, published 2004)

System: transformant EBNAG1 (E. coli RFM443/pNAG1, nagR-PnagG::luxCDABE)
Test: Detectability of transformant EBNAG1 on benzoic acid and derivatives (bioluminescence response)
Format: cell-based, Escherichia coli
Conditions: for minimal effective concentration: Escherichia coli, read-out: MDC (Minimum detection concentration); for bioluminescence intensity: EBNAG1, 0.1953125-12.5 mM, 3 hours after seeding, FIGS. 3a and 3b
Description: The EBNAG1 strain was cultivated in a 100 ml LB medium supplemented with 50 μg/ml ampicillin at 30° C. until the absorbance reached 0.08 (at 600 nm). 100 μl of aliquot was taken from the culture for the measurement of the bioluminescence intensity, and was then poured on each well of an opaque96-well plate [Microlite™, Thermo Labsystems, USA] containing chemicals to be tested (benzoic acid concentrations: 12.5, 6.25, 3.125, 1.5625, 0.78125, 0.390625 and 0.1953125 mM, and salicylic acid concentrations: 12.5, 6.25, 3.125, 1.5625, 0.78125, 0.390625 and 0.1953125 mM). The well plates were placed in a 96-well microtiter plate reader (MLX Microtiter® Plate Luminometer, DYNEX Technology, USA) to measure the bioluminescence intensity.
FIGS. 3a and 3b show the results of bioluminescent signals obtained from EBNAG1 after seeding benzoic acid and salicylic acid as a representative benzoic acid derivative at various concentrations, respectively.

| Compound | minimal effective concentration [µM] | bioluminescence intensity |
| --- | --- | --- |
| O=C(O)c1ccc(O)cc1O [2,4-Dihydroxybenzoic acid] | 3130 | – |
| O=C(O)c1ccc(O)c(O)c1 [3,4-Dihydroxybenzoic acid] | 6250 | – |
| COc1ccc(CO)cc1OC [3,4-Dimethoxybenzylalcohol] | 390 | – |
| O=C(O)c1cc(O)cc(O)c1 [3,5-Dihydroxybenzoic acid] | 3130 | – |
| O=C(O)c1ccc(Cl)cc1O [4-Chlorosalicylic acid] | < 390 | – |
| O=C(O)c1cc(Cl)ccc1O [5-Chlorosalicylic acid] | 390 | – |
| O=C(O)c1ccccc1 [Benzoic acid] | 390 | increased in proportion to the benzoic acid concentrations |
| O=C(O)c1ccccc1O [Salicylic acid] | 195 | increased in proportion to the salicylic acid concentrations |
